Reference: ChEMBL document CHEMBL2434921, “New synthetic aliphatic sulfonamido-quaternary ammonium salts as anticancer chemotherapeutic agents” (2013)
Each block holds one molecule with its values, some of them ahead of it. The source made the active and inactive calls. The rule behind the calls is not given here.

Columns and labels:
NCI-H23 [1] = assay: Growth inhibition of human NCI-H23 cells after 48 hrs by SRB assay; type: functional; details: NCI-H23, 48 h
HCT-15 [2] = assay: Growth inhibition of human HCT15 cells after 48 hrs by SRB assay; type: functional
NUGC-3 [3] = assay: Growth inhibition of human NUGC3 cells after 48 hrs by SRB assay; type: functional; details: NUGC-3, 48 h
ACHN [4] = assay: Growth inhibition of human ACHN cells after 48 hrs by SRB assay; type: functional
MDA-MB-231 [5] = assay: Growth inhibition of human MDA-MB-231 cells after 48 hrs by SRB assay; type: functional; details: MDA-MB-231, 48 h
PC-3 [6] = assay: Growth inhibition of human PC3 cells after 48 hrs by SRB assay; type: functional; details: PC-3, 48 h
[7] = molecular target: Rho-related GTP-binding protein RhoB (Homo sapiens) (UniProt P62745); assay: Transactivation of RhoB (unknown origin) transfected in human HeLa cells at 5 uM measured over 10 secs by dual luciferase reporter gene assay; type: cell-based
PC-3 [8] = assay: Growth of human PC3 cells at 10 uM after 48 hrs by SRB assay; details: PC-3, 48 h
NUGC-3 [9] = assay: Growth of human NUGC3 cells at 1 uM after 48 hrs by SRB assay; details: NUGC-3, 48 h
ACHN [10] = assay: Growth of human ACHN cells at 10 uM after 48 hrs by SRB assay
HCT-15 [11] = assay: Growth of human HCT15 cells at 3 uM after 48 hrs by SRB assay; details: HCT-15, 48 h
ACHN [12] = assay: Growth of human ACHN cells at 0.1 uM after 48 hrs by SRB assay
ACHN [13] = assay: Growth of human ACHN cells at 0.3 uM after 48 hrs by SRB assay
NUGC-3 [14] = assay: Growth of human NUGC3 cells at 0.1 uM after 48 hrs by SRB assay; details: NUGC-3, 48 h
NUGC-3 [15] = assay: Growth of human NUGC3 cells at 0.3 uM after 48 hrs by SRB assay; details: NUGC-3, 48 h
HCT-15 [16] = assay: Growth of human HCT15 cells at 0.3 uM after 48 hrs by SRB assay; details: HCT-15, 48 h
NCI-H23 [17] = assay: Growth of human NCI-H23 cells at 10 uM after 48 hrs by SRB assay; details: NCI-H23, 48 h
NCI-H23 [18] = assay: Growth of human NCI-H23 cells at 0.3 uM after 48 hrs by SRB assay; details: NCI-H23, 48 h
MDA-MB-231 [19] = assay: Growth of human MDA-MB-231 cells at 1 uM after 48 hrs by SRB assay; details: MDA-MB-231, 48 h
MDA-MB-231 [20] = assay: Growth of human MDA-MB-231 cells at 10 uM after 48 hrs by SRB assay; details: MDA-MB-231, 48 h
MDA-MB-231 [21] = assay: Growth of human MDA-MB-231 cells at 0.1 uM after 48 hrs by SRB assay; details: MDA-MB-231, 48 h
MDA-MB-231 [22] = assay: Growth of human MDA-MB-231 cells at 3 uM after 48 hrs by SRB assay; values are per cent of control; details: MDA-MB-231, 48 h
PC-3 [23] = assay: Growth inhibition of human PC3 cells at 1 uM after 48 hrs by SRB assay; values are per cent of control; details: PC-3, 48 h
PC-3 [24] = assay: Growth inhibition of human PC3 cells at 3 uM after 48 hrs by SRB assay; values are per cent of control; details: PC-3, 48 h
ACHN [25] = assay: Growth inhibition of human ACHN cells at 3 uM after 48 hrs by SRB assay; values are per cent of control
ACHN [26] = assay: Growth inhibition of human ACHN cells at 1 uM after 48 hrs by SRB assay; values are per cent of control
NUGC-3 [27] = assay: Growth inhibition of human NUGC3 cells at 3 uM after 48 hrs by SRB assay; values are per cent of control; details: NUGC-3, 48 h
PC-3 [28] = assay: Growth inhibition of human PC3 cells at 0.1 uM after 48 hrs by SRB assay; values are per cent of control; details: PC-3, 48 h
PC-3 [29] = assay: Growth inhibition of human PC3 cells at 0.3 uM after 48 hrs by SRB assay; values are per cent of control; details: PC-3, 48 h
HCT-15 [30] = assay: Growth inhibition of human HCT15 cells at 1 uM after 48 hrs by SRB assay; values are per cent of control; details: HCT-15, 48 h
NUGC-3 [31] = assay: Growth inhibition of human NUGC3 cells at 10 uM after 48 hrs by SRB assay; values are per cent of control; details: NUGC-3, 48 h
HCT-15 [32] = assay: Growth inhibition of human HCT15 cells at 10 uM after 48 hrs by SRB assay; values are per cent of control; details: HCT-15, 48 h
NCI-H23 [33] = assay: Growth inhibition of human NCI-H23 cells at 1 uM after 48 hrs by SRB assay; values are per cent of control; details: NCI-H23, 48 h
NCI-H23 [34] = assay: Growth inhibition of human NCI-H23 cells at 3 uM after 48 hrs by SRB assay; values are per cent of control; details: NCI-H23, 48 h
HCT-15 [35] = assay: Growth inhibition of human HCT15 cells at 0.1 uM after 48 hrs by SRB assay; values are per cent of control; details: HCT-15, 48 h
NCI-H23 [36] = assay: Growth inhibition of human NCI-H23 cells at 0.1 uM after 48 hrs by SRB assay; values are per cent of control; details: NCI-H23, 48 h
MDA-MB-231 [37] = assay: Growth inhibition of human MDA-MB-231 cells at 0.3 uM after 48 hrs by SRB assay; values are per cent of control; details: MDA-MB-231, 48 h

Rho-related GTP-binding protein RhoB (Homo sapiens), sequence (P62745 whole entry): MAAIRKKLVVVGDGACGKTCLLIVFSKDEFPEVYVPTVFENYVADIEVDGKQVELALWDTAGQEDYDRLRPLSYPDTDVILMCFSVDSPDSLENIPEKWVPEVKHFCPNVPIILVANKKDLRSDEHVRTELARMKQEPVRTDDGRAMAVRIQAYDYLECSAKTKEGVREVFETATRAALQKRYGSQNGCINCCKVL

GI50 (NCI-H23 [1]): 240 nM
GI50 (HCT-15 [2]): inactive
GI50 (ACHN [4]): 100 nM
GI50 (MDA-MB-231 [5]): 300 nM
GI50 (PC-3 [6]): 210 nM
Compound: C=CC[N+](C)(C)CCN(C)C(=O)CCCCCCCCCCCCC
GI50 (NUGC-3 [3]): 140 nM

GI50 (PC-3 [6]): 440 nM
Compound: CCCCCCCCCCCCCCCCCCOP(=O)([O-])OC1CC[N+](C)(C)CC1 [PERIFOSINE]
GI50 (NUGC-3 [3]): 540 nM

GI50 (HCT-15 [2]; HCT-15, 48 h): 580 nM
Activity [7]: Active
GI50 (PC-3 [6]): 480 nM
Compound: CCCCCCCCCCCCCCCC(=O)N1CC[N+](C)(C)CC1
GI50 (NUGC-3 [3]): 290 nM

GI50 (NCI-H23 [1]): 740 nM
GI50 (HCT-15 [2]; HCT-15, 48 h): 560 nM
GI50 (ACHN [4]): 2210 nM
GI50 (MDA-MB-231 [5]): 1520 nM
GI50 (PC-3 [6]): 560 nM
Compound: CCCCCCCCCCCCCCCCS(=O)(=O)NCC(C)(C)C[N+](C)(C)C
GI50 (NUGC-3 [3]): 430 nM
growth, % of control at 10 µM (PC-3 [8]): -14.6%
growth, % of control at 1 µM (NUGC-3 [9]): 33.6%
growth, % of control at 10 µM (ACHN [10]): 99.6%
growth, % of control at 3 µM (HCT-15 [11]): 17.6%
growth, % of control at 0.1 µM (ACHN [12]): 122%
growth, % of control at 0.3 µM (ACHN [13]): 114%
growth, % of control at 0.1 µM (NUGC-3 [14]): 106%
growth, % of control at 0.3 µM (NUGC-3 [15]): 87.1%
growth, % of control at 0.3 µM (HCT-15 [16]): 132%
growth, % of control at 10 µM (NCI-H23 [17]): 0.7%
growth, % of control at 0.3 µM (NCI-H23 [18]): 102%
growth, % of control at 1 µM (MDA-MB-231 [19]): 73.6%
growth, % of control at 10 µM (MDA-MB-231 [20]): 16.5%
growth, % of control at 0.1 µM (MDA-MB-231 [21]): 95.6%
growth, % of control at 3 µM (MDA-MB-231 [22]): 49.5%
growth, % of control at 1 µM (PC-3 [23]): 51.8%
growth, % of control at 3 µM (PC-3 [24]): 0.2%
growth, % of control at 3 µM (ACHN [25]): 101%
growth, % of control at 1 µM (ACHN [26]): 108%
growth, % of control at 3 µM (NUGC-3 [27]): 14.7%
growth, % of control at 0.1 µM (PC-3 [28]): 107%
growth, % of control at 0.3 µM (PC-3 [29]): 102%
growth, % of control at 1 µM (HCT-15 [30]): 46.1%
growth, % of control at 10 µM (NUGC-3 [31]): 3%
growth, % of control at 10 µM (HCT-15 [32]): 11.7%
growth, % of control at 1 µM (NCI-H23 [33]): 54.1%
growth, % of control at 3 µM (NCI-H23 [34]): 26.3%
growth, % of control at 0.1 µM (HCT-15 [35]): 136%
growth, % of control at 0.1 µM (NCI-H23 [36]): 104%
growth, % of control at 0.3 µM (MDA-MB-231 [37]): 95%
